# Source: US11883526B2 (priority 2019, dated 2024)
# How the values were obtained:
# [1] = system: patients with treatment-resistant depression (TRD); assay: BPRS positive symptom subscale (Example 7); design: species or system human; settings: in vivo
# Description: Adverse events were monitored throughout the study. Other safety assessments (i.e., laboratory tests, vital signs, physical examination) were performed at pre-specified time points. Vital signs, the Clinician Administered Dissociative States Scale (CADSS; Bremner, “Measurement of dissociative states with the clinician-administered dissociative states scale (CADSS)”, J. Traumatic Stress, 1998, 11(1):125-136), and the 4-item positive symptom subscale from the Brief Psychiatric Rating Scale (BPRS; Overall, “The Brief Psychiatric Rating Scale. Psychological Reports”, 1962, 10:799-812) were assessed pre-dose, at 40 minutes, and 2 hours post-dose.
# [2] = system: patients with treatment-resistant depression (TRD); assay: CGI-S (Example 7); format: in vivo, human
# Description: Overall illness severity was assessed on the Clinical Global Impression of Severity (CGI-S) scale (Guy, “ECDEU Assessment Manual for Psychopharmacology—Revised (DHEW Publ No ADM 76-338)”, Rockville, Md.: U.S. Department of Health, Education, and Welfare, Public Health Service, Alcohol, Drug Abuse, and Mental Health Administration, NIMH Psychopharmacology Research Branch, Division of Extramural Research Programs; 1976, pp 218-222). Participants assessed their severity of anxiety on the Generalized Anxiety Disorder 7-item (GADS-7) Scale (See, Tables 157 and 158). See, Spitzer, “A brief measure for assessing generalized anxiety disorder—the GAD-7”, Arch. Intern. Med., 2006, 166(10):1092-1097.
# subjects with TRD = settings: human, in vivo, other: intranasal
# Description: The Clinician Administered Dissociative States Scale (CADSS) was measured prior to the start of each dose, at 40 minutes, and 1.5 hours postdose.
compound,measurement,setting,value
"CN[C@]1(c2ccccc2Cl)CCCCC1=O [esketamine, (S)-2-(2-chlorophenyl)-2-(methylamino)cyclohexanone]",symptoms suggestive of psychosis (BPRS-positive assessment),[1],No participant manifested symptoms suggestive of psychosis
same,"CGI-S change from baseline, Median Change (Range)","[2]; Period 1 (first day to day 8), 28 mg","−1.0 (−2, 1)"
same,"CGI-S change from baseline, Median Change (Range)","[2]; Period 1 (first day to day 8), 56 mg","−1.0 (−3, 0)"
same,"CGI-S change from baseline, Median Change (Range)","[2]; Period 1 (first day to day 8), 84 mg","−0.5 (−4, 0)"
same,"CGI-S at end point, Median (Range)","[2]; Period 1, 28 mg","4.0 (3, 5)"
same,"CGI-S at end point, Median (Range)","[2]; Period 1, 56 mg","4.0 (1, 5)"
same,"CGI-S at end point, Median (Range)","[2]; Period 1, 84 mg","4.0 (1, 6)"
same,"CGI-S change from baseline, Median Change (Range)","[2]; Period 2 (first day to day 8 of period), 28 mg","−1.0 (−1, 0)"
same,"CGI-S change from baseline, Median Change (Range)","[2]; Period 2 (first day to day 8 of period), 56 mg","−1.0 (−2, 0)"
same,"CGI-S change from baseline, Median Change (Range)","[2]; Period 2 (first day to day 8 of period), 84 mg","−1.0 (−2, 0)"
same,"CGI-S at end point, Median (Range)","[2]; Period 2, 28 mg","4.0 (3, 5)"
same,"CGI-S at end point, Median (Range)","[2]; Period 2, 56 mg","5.0 (4, 6)"
same,"CGI-S at end point, Median (Range)","[2]; Period 2, 84 mg","4.0 (3, 5)"
same,dissociative and perceptual change symptoms (CADSS) resolved by,subjects with TRD,≤ 1.5 hours post dose
